The target in experiment [1] is T1, amyloid beta (Aβ1–40) (Homo sapiens, UniProt P05067). Kind of experiment: FRET titration of ternary complex with 4G8 and PE-labelled secondary antibody; dot blot; fluorescence probe in competition. It counts as binding. On the set-up: gene APP; Aβ1–40 monomers (also oligomers and aggregates); with 4G8 antibody.
For experiment [2], the target named is T1, amyloid beta (Aβ1–40). Description: fluorescence competition with CRANAD-3; also antibody dot blot, MSD, Simoa and ThT aggregation assay. It counts as binding. Also on record: gene APP; Aβ1–40 monomers.
In experiment [3] the target is T1, amyloid beta (Aβ1–40). Kind of experiment: concentration-dependent 4G8 dot blot (one-site binding fit); ANS fluorescence; FRET; MSD/Simoa. On the set-up: gene APP; Aβ1–40; fragment Aβ17–24 also tested by ANS; with 4G8 antibody.

T1 sequence (P05067 672-711): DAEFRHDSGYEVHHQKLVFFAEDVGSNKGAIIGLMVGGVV

With `CCN(CC)c1ccc(/C=C/C2=CC(/C=C/c3ccc(N(CC)CC)nc3)=[O+][B-](F)(F)O2)cn1` [CRANAD-3], the “FRET titration of ternary complex with 4G8 and PE-labelled secondary antibody; d” value at amyloid beta (Aβ1–40) [1] was “enhanced antibody recognition was due to the formation of the ternary complex of CRANAD-3, Aβs and 4G8 antibody”.
Molecule `Cc1ccc(NC(=O)Nc2cc(C(F)(F)F)ccc2F)cc1Nc1ccc2c(c1)NC(=O)/C2=C\c1ccc[nH]1` [GNF-5837] had a Ki on amyloid beta (Aβ1–40) [2] of 4.16 ± 1.04 nM.
CRANAD-17: it took 121 nM to reach a half-maximal effect on amyloid beta (Aβ1–40) [3] (EC50).

Broadly, the EC50 is the concentration giving half of the maximal effect. Read a low EC50 as greater potency.

(Values after article PMC9278120, “Epitope alteration by small molecules and applications in drug discovery” (Chemical Science, 2022).)
